According to patent publication US11014908B2, “Chemical compounds” (Pfizer Inc., priority 2018, dated 2021):

Columns and labels:
[1] = target: T1, HbS (Homo sapiens, UniProt P68871+P69905, E7V); experiment: HbS polymerization assay (delay time); format: biochemical; settings: 0.15 mM HbS, n=3, vs DMSO; for Increase in DT for 25% HbS Occ: 0.075 mM compound
T1 construct: HbS was obtained from the blood of homozygous S/S patients; from tissue; host or cells: red blood cells of homozygous S/S patients
Source text: This assay is used to determine the degree of inhibition of polymerization of HbS by compounds of the invention at varying degrees of HbS occupancy. The method used for the assay was adapted from that described in He and Russell (He, Z. and J. E. Russell, “A high-Throughput Microplate Method for Assessing Aggregation of Deoxygenated Hemoglobin S Heterotetramers in Vitro”, Anal Biochem 306(2): 349-352 (2002)).
Purified HbS was exchanged into 1.25 M potassium phosphate, pH=7.4 and concentrated to 1.1 mM. The hemoglobin concentration was fixed at 0.15 mM, and the HbS was diluted to the appropriate concentration using 1.25 M potassium phosphate, pH=7.4. The compound of the invention was added to 0.15 mM HbS in the following concentrations: […], 0.075 mM (25%) and 0.15 mM (50%). As these compounds are ditopic binders, the concentration was doubled to calculate the % coverage, ie. 0.15*0.5=0.075*2=0.15. DMSO concentrations were matched for all compound concentrations, as well as no-compound control, and HbA. Following incubation, 33.5 μL of HbS solution was added to each well of a Costar 96-well half area plate. To induce deoxygenation, 16.5 μL of 1 M sodium dithionite, prepared in 1.25 M potassium phosphate, was added to each well for a final assay concentration of 330 mM, and mixed thoroughly. Fifty μL of mineral oil was overlaid over the solution in each well to prevent reoxygenation, and the plate was placed at 4° C. for five minutes. Following cold incubation, the plates were placed in a spectrophotometer that had been equilibrated at 37° C., to initiate the polymerization process (temperature jump). The reaction was monitored at 700 nm for 40 minutes, with data points collected every 30 seconds. Four wells were used for each condition, and the data averaged at every point for analysis. Data was analyzed using Graph Pad Prism, and the data was fit to a Boltzman sigmoidal equation, in which V50 (t1/2) was taken as the delay time. The percent change was calculated using the DMSO as the initial delay time. Error in percent change was compounded using the V50 errors generated when fit to the Boltzman sigmoidal equation.
Delay in HbS polymerization, as measured by increasing delay time as a function of % HbS occupancy (% HbS Occ), is reported in Table 5 below as the increase in delay time (DT) for 10%, 25% and 50% HbS occupancy (n=3).

[2] = Single dose study in sickle Townes mice: exposure in whole blood; format: in vivo; settings: male, Townes (sickle cell disease model), mouse, SCD mice, n=3
Protocol: (§1) In Vivo Studies Mouse Model
(§2) The effect of the compounds of the invention was evaluated in-male sickle Townes mice in a single dose study. Compounds of the invention were administered in amounts set out in Tables 7, 8 and 9 that follow by oral gavage. Control mice received vehicle. Blood (50 μL) was drawn at 0.5 h, 1 h, 4 h, 7 h, 10 h, and 24 h. To measure exposure in whole blood, 20 μL sample was used. Blood drawn at 0.5 h was also evaluated for cell sickling.

[3] = system: Red Blood Cells (RBCs) from treated animals; experiment: Single dose study in sickle Townes mice: RBC sickling under hypoxia; format: in vivo, mouse; settings: 0.5 h, SCD mice, n=3
Protocol: as §1, §2
Red Blood Cells (RBCs) from treated animals were diluted to ˜10^7 cells/mL with 300 μL Hemeox solution in a 24-well plate and incubated in a hypoxia chamber, 5% CO2 and 3% O2 for 4 h. Cells were then fixed at room temperature for 30 minutes in sickling fixative solution and stained with TER119 alexa 488 conjugated antibody (BioLegend) for 30 minutes at room temperature, washed and plated at 50,000 cells/well with 200 μL of hemox buffer (TCS Scientific). Data were visualized using Graph Pad Prism (Version 5). Results are expressed as mean±standard error of the mean (SEM). Statistical analysis was made using a non-parametric one-way analysis of variance (ANOVA) followed by a Dunnett's multiple comparison. Significance was accepted when p<0.01.

[4] = system: Townes SCD mice; experiment: Chronic dosing study (BID, 15 days) in Townes SCD mice; format: in vivo, mouse; settings: 200 mg/kg BID for 15 days, Townes SCD mice, vs vehicle; for sVCAM1, Change (decrease): ELISA
Protocol: Following 15 days of dosing, blood samples were collected from all animals to run in the Hemeox analyzer to generate oxygen affinity curves, complete blood analysis was performed using Idexx hematology Analyzer, and cell sickling assessed as described before. Soluble Vascular Adhesion Molecule 1 levels (sVCAM1) were assessed by Enzyme linked immunosorbent assay (ELISA) from R&D systems. Results are presented below in Tables 7, 8 and 9.

[5] = single dose 10 mg/kg oral gavage
[6] = single dose 40 mg/kg oral gavage
[7] = single dose 220 mg/kg oral gavage
[8] = single dose 490 mg/kg oral gavage
[9] = single dose 30 mg/kg oral gavage
[10] = single dose 100 mg/kg oral gavage
[11] = single dose 300 mg/kg oral gavage
[12] = single dose 900 mg/kg oral gavage

Structure (SMILES) | Increase in DT for 25% HbS Occ [1] [%] | sVCAM1, Change (decrease) [4] [% decrease] | Hb, Change (increase) [4] [% increase] | Hematocrit, Change (increase) [4] [% increase] | RBC sickling, Change (decrease) [4] [% decrease] | RBCs, Change (increase) [4] [% increase] | Reticulocytes, Change (decrease) [4] [% decrease] | p20, Change (decrease) [4] [% decrease] | p50, Change (decrease) [4] [% decrease] | further results
C[C@H](Oc1cc2cc(F)ccc2nc1N)c1nc(O)ccc1-n1cccn1 [Example 58, 6-{(1S)-1-[(2-amino-6-fluoroquinolin-3-yl)oxy]ethyl}-5-(1H-pyrazol-1-yl)pyridin-2-ol] | 70 ± 8 | 9.98 ± 7.1 | 42.4 ± 4.2 | 30.9 ± 0.7 | 37.8 ± 9.0 | 39.2 ± 9.3 | 54.7 ± 2.4 | 84.4 ± 2.6 | 53.7 ± 21.2 | Increase in DT for 10% HbS Occ ([1]; 0.03 mM compound): 18 ± 5%; Increase in DT for 50% HbS Occ ([1]; 0.15 mM compound): 74 ± 21%; concentration at 0.5 h [2, 5]: 35.8 µM; concentration at 0.5 h [2, 6]: 285 µM; concentration at 0.5 h [2, 7]: 1450 µM; concentration at 0.5 h [2, 8]: 2870 µM; % Change in RBC Sickling [3, 5]: −6.2%; % Change in RBC Sickling [3, 6]: 4.6%; % Change in RBC Sickling [3, 7]: 50.8%; % Change in RBC Sickling [3, 8]: 48.3%
C[C@H](Oc1cc2cc(F)cc(F)c2nc1N)c1cc(C(=O)O)ccc1-n1cccn1 [Example 21, 3-{(1S)-1-[(2-amino-6,8-difluoroquinolin-3-yl)oxy]ethyl}-4-(1H-pyrazol-1-yl)benzoic Acid] | 64 ± 6 | 6.57 ± 3.75 | 43.7 ± 9.83 | 29.1 ± 11.2 | 30.8 ± 14.5 | 44.6 ± 9.04 | 32.7 ± 9.37 | 76.1 ± 13.9 | 26.2 ± 9.7 | concentration at 0.5 h [2, 9]: 14.7 µM; concentration at 0.5 h [2, 10]: 303 µM; concentration at 0.5 h [2, 11]: 1140 µM; concentration at 0.5 h [2, 12]: 1500 µM; % Change in RBC Sickling [3, 9]: 2.03%; % Change in RBC Sickling [3, 10]: −0.02%; % Change in RBC Sickling [3, 11]: 24.6%; % Change in RBC Sickling [3, 12]: 29.0%
